Measured values taken from PMC4949444 (Scientific Reports, 2016).

What was measured:
[1] = system: ERK, Akt and mTORC1 signaling pathways; test: ERK, Akt and mTORC1 signalling in HiB5 cells (western blot); type: cell-based
Method: Figure 3 Prosurvival effect of VCE-003.2 in hippocampal neural progenitor HiB5 cells. (a,b) HiB5 cells in proliferative and differentiation conditions respectively were incubated with increasing concentrations of VCE-003.2 and cell viability was assessed using the MTT test after 48 h. (c) Cell viability and ERK1/2 phosphorylation status (activation) was determined in VCE-003.2-treated cells in the absence or presence of GW9662 (5 μM). (d) VCE-003.2 time-dependent regulation of the ERK, Akt and mTORC1 signaling pathways were determined by incubation with anti-phospho-ERK, phospho-Akt and phospho-S6 antibodies. Loading control was performed with α-tubulin antibody. Representative western blots and densitometry quantification of three independent experiments are shown. Values are expressed as means ± S.D. *p < 0.05; **p < 0.01 vs. Vehicle; ^#p < 0.05 vs. VCE-003.2.
Cleared cell extracts were subjected to SDS-PAGE, transferred to polyvinylidene difluoride membranes, and incubated with the correspondent primary antibodies against phospho-ERK1/2 (Thr202/Tyr204; Cell Signaling Technology, Danvers, MA, USA), phospho-S6 ribosomal protein (Ser235/236) (Cell Signaling Technology), phospho-Akt (Ser473) (Cell Signaling Technology) and α-tubulin (Sigma-Aldrich) overnight at 4 °C. After washing membranes, horseradish peroxidase-conjugated secondary antibody was added and detected by chemiluminescence system. Loading controls were performed with an anti-α-tubulin antibody. Densitometric quantification of the luminograms was performed using a GS-700 Imaging densitometer (Bio-Rad, Hercules, CA) and Image J software.

[2] = system: 3NP-lesioned C57BL/6 mice; test: 3-nitropropionic acid (3NP) model of Huntington's disease; type: in vivo; conditions: for COX-2 (2expΔΔct) / IL-6 (2expΔΔct) / TNF-α (2expΔΔct): striatum mRNA; for % GSH / % SOD activity / %Catalase activity: striatum
Method: Figure 7 VCE-003.2 is neuroprotective in 3NP-intoxicated mice. (a) Behavioural score was determined 12 hours after 3NP intoxication. Mice were treated with VCE-003.2 (20 mg/Kg) alone or combined with T0070907 (5 mg/kg) as indicated. Animals were also treated separately with either VCE-003.2 or T0070907 alone. Hind limb clasping, general locomotor activity, hind limb dystonia and kyphosis were rated from 0 to 2 based on severity (score 0 indicates normal function and 2 indicates the most severe affected function). Values are expressed as means ± SEM (n = 6). (b) Representative images of Nissl staining performed on coronal striatal brain sections from the same mice groups. Photomicrographs of NeuN (Bar size, 50 μm) Iba-1 and glial fibrillary acidic protein (GFAP) immunostained sections through the different group of mice are also shown. (c) Quantification of the different markers was performed with Image J software. Total average number of neurons (NeuN^+), microglia (Iba1^+) and astrocytes (GFAP^+) is shown. Values are expressed as means ± SEM (n = 6). *p < 0.05, **p < 0.01, ***p < 0.001 vs. Vehicle; ^#p < 0.05, ^##p < 0.01, ^###p < 0.001 vs. 3NP; †p < 0.05, ^††p < 0.01, ^†††p < 0.001 vs. the 3NP + VCE-003.2 group.
Mice were housed under standard conditions (12-h light/dark cycle) in groups with access to food and water ad libitum. All experiments were performed in accordance with European Union guideline and approved by the Animal Research Ethic Committee of Córdoba University (2014PI/017) (3NP model) and by the Animal Research Ethic Committee of Complutense University (CEA-UCM 73/2012) (QA model). Procedures were designed to minimize the number of animals used and their suffering. Excitotoxicity was induced by intrastriatal quinolinic acid (QA) administration (100 nmol in 1 μL PBS solution, unilaterally) as previously described[41] at the following coordinates: +0.6 posterior to bregma, +1.85 medio-lateral and -2.7 dorso-ventral to dura, in 12-week-old CD1 male mice (Harlan Ibérica, Barcelona, Spain). Pharmacological manipulation with VCE-003.2 (10 mg/kg body weight) was performed i.p. daily in 2% Tween 20 and 3% DMSO in saline buffer until sacrifice. Control animals received the corresponding vehicle injections. Motor function was assessed by RotaRod analysis conducted with acceleration from 4 to 40 rpm over a period of 570 s in an LE8200 device (Harvard Apparatus, Barcelona, Spain). […] 3NP-treated animals and their respective non-lesioned controls (injected with PBS) were used for pharmacological studies with VCE-003.2. Treatments consisted of 4 i.p. injections every 24 h with 20 mg/kg VCE-003.2 or vehicle (4% DMSO plus 6,2% Tween 20 in saline buffer), with the first and the last injections 30 min before the first and the last injections of 3NP, respectively. In some experiments, mice received a combination of VCE-003.2 and the PPARγ antagonist T0070907 (5 mg/kg) injected 15 minutes before VCE-003.2. In 3NP-lesioned mice, motor activity, hindlimb clasping, dystonia, and truncal dystonia were evaluated following previously described procedures. All behavioural tests were conducted prior to drug injections to avoid acute effects of the compounds under investigation and all animals were euthanized 12 h after the last injection of 3NP and their brains removed. The right hemispheres were used to dissect the striatum which was frozen in RNAlater (Sigma-Aldrich) and stored at −80 °C for biochemical analyses. The left hemispheres were fixed in fresh 4% paraformaldehyde (in 0.1 M PBS) for 48 h at 4 °C and embedded in paraffin wax for staining and immunohistochemical analysis. In all experiments, at least 6 animals were used per experimental group.
Free floating coronal brain slices ([…]) were processed as previously described. […]

[3] = 3NP-lesioned mice, + T0070907 5 mg/kg
[4] = 3NP-treated mice, VCE-003.2 20 mg/kg
[5] = 3NP-treated mice, VCE-003.2 20 mg/kg + T0070907 5 mg/kg
[6] = substance alone, mean ± SEM n=6
[7] = 3NP-treated mice, VCE-003.2 20 mg/kg, % of vehicle control
[8] = substance alone, % of vehicle-treated control

## CCCCCC1=C(NCC)C(=O)C(C/C=C(\C)CCC=C(C)C)=C(O)C1=O [VCE-003.2]
[1]
  ERK phosphorylation: induction of extracellular signal-regulated kinase (ERK) phosphorylation
[1]; + GW9662 5 μM
  ERK phosphorylation in presence of GW9662: abolished in the presence of GW9662
[1]; phospho-Akt
  activation of Akt, time course: activated at a higher extent and shortly after VCE-003.2 incubation and lasted until 60 min after incubation
[1]; phospho-ERK and phospho-S6
  activation of ERK and mTORC1 signaling, time course: transient activation of ERK and mTORC1 signaling pathways between 15 and 30 min after stimulation
[2]; 3NP-lesioned mice, 20 mg/kg
  loss of Nissl and NeuN+ cells in striatum: rescued the loss of Nissl and NeuN^+-cells
  microgliosis and astrogliosis (Iba1, GFAP): reduced 3NP-induced microgliosis and astrogliosis
[2]; 3NP-lesioned mice, 20 mg/kg i.p.
  motor deficits: hindlimb clasping, dystonia, kyphosis: improved the motor deficits of 3NP-lesioned mice by reducing hindlimb clasping, dystonia and kyphosis
[2]; [3]
  effect on motor deficits with PPARγ antagonist co-administered: abrogated
  neuroprotective activity (Nissl, NeuN) with T0070907 co-administered: prevented the activity of VCE-003.2
[2]; mice given the substance alone
  behavioural score, substance alone: Neither VCE-003.2 nor T0070907 alone influenced the behavior of the animals
[2]; [4]
  COX-2 (2expΔΔct): 2.7 ± 0.07^### 2expΔΔct
  IL-6 (2expΔΔct): 1.79 ± 0.2^### 2expΔΔct
  TNF-α (2expΔΔct): 1.56 ± 0.576^## 2expΔΔct
[2]; [5]
  COX-2 (2expΔΔct): 8.91 ± 1^† 2expΔΔct
  IL-6 (2expΔΔct): 8.18 ± 2.9 2expΔΔct
  TNF-α (2expΔΔct): 3.83 ± 1.17 2expΔΔct
  % GSH: 121.48 ± 15.29%
  % SOD activity: 121.46 ± 37.04%
  %Catalase activity: 89.08 ± 5.7%
[2]; [6]
  COX-2 (2expΔΔct): 1.31 ± 0.75 2expΔΔct
  IL-6 (2expΔΔct): 1.14 ± 0.65 2expΔΔct
  TNF-α (2expΔΔct): 1.15 ± 058 2expΔΔct
[2]; [7]
  % GSH: 111.7 ± 12.6%
  % SOD activity: 221.18 ± 26.91^# %
  %Catalase activity: 88.82 ± 6.75^# %
[2]; [8]
  % GSH: 101.81 ± 14.59%
  % SOD activity: 115.62 ± 27.34%
  %Catalase activity: 99.05 ± 6.1%
